Experimental data: PubChem BioAssay (NCI)
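Assay format: 96-well plates, 48-hour exposure. The concentration for 50% growth inhibition is given as GI50. TGI: total growth inhibition.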

What was measured:
Assay in all cases: NCI tumour cell line growth inhibition, 48 h
NCI-H23 lung = test system: NCI-H23 lung
HOP-62 NSCLC = test system: HOP-62 NSCLC
KM12 colon = test system: KM12 colon
SF-539 CNS = test system: SF-539 CNS
SR leukemia = test system: SR leukemia
ACHN renal = test system: ACHN renal
SN12C renal = test system: SN12C renal
BT-549 breast = test system: BT-549 breast
SW-620 colon = test system: SW-620 colon
SNB-19 CNS = test system: SNB-19 CNS

Row | Structure (SMILES) | GI50 (NCI-H23 lung) [µM] | TGI (NCI-H23 lung) [µM] | GI50 (HOP-62 NSCLC) [µM] | TGI (HOP-62 NSCLC) [µM] | GI50 (KM12 colon) [µM] | TGI (KM12 colon) [µM] | GI50 (SF-539 CNS) [µM] | TGI (SF-539 CNS) [µM] | GI50 (SR leukemia) [µM] | TGI (SR leukemia) [µM] | GI50 (ACHN renal) [µM] | TGI (ACHN renal) [µM] | GI50 (SN12C renal) [µM] | TGI (SN12C renal) [µM] | GI50 (BT-549 breast) [µM] | TGI (BT-549 breast) [µM] | GI50 (SW-620 colon) [µM] | TGI (SW-620 colon) [µM] | GI50 (SNB-19 CNS) [µM] | TGI (SNB-19 CNS) [µM]
1 | CCOC(=O)c1c(NN2CCN(CC(F)(F)F)CC2)oc(/C=C2\C=Nc3ncccc32)c1O | 7 | 21.7 | 5.03 | 21.8 | 3.45 | 15.3 | 2.33 | 13.9 | 0.689 | 3.81 | 5.85 | 77.4 | 4.26 | 42.6 | 1.59 | 5.68 | 0.808 | 22.9 | 20.7 | > 100
2 | Nc1nc(-c2cccnc2)cc(-c2cc(-c3cccnc3)nc(N)n2)n1 | – | > 100 | – | > 100 | – | > 100 | – | > 100 | – | > 100 | – | > 100 | – | > 100 | – | > 100 | – | > 100 | – | > 100
3 | CCc1cc2c(c(OCC(F)(F)F)c(C(=O)NC3CCN(C(=O)CO)CC3)n2C)c(=O)n1CC(=O)c1ccccc1 | 99.7 | > 100 | > 80.9 | > 100 | 58.5 | > 100 | 36.5 | > 100 | 50.7 | > 100 | > 64.5 | > 100 | > 100 | > 100 | 51.3 | > 100 | > 59.4 | > 100 | > 100 | > 100
4 | COc1ccc(C2c3ccc4ccccc4c3Oc3ncn(CCCn4ccnc4)c(=N)c32)cc1OC (stereo not given) | 6.49 | 22.4 | 5.03 | 18.4 | 3.74 | 13.9 | 1.74 | 3.28 | 1.57 | 4.15 | 4.42 | 16.2 | 3.64 | 17.7 | 3.41 | 13.5 | 2.73 | 9.24 | 11.2 | 26.7
5 | CCn1nc(C2CCN(C(=O)CCO)CC2)nc1-c1cnc(N)c(-c2nnc(C(C)(C)C)o2)n1 | 26.1 | > 100 | 5.01 | > 100 | 14.9 | 45.1 | 5.74 | > 100 | 15.5 | > 88.4 | 3.92 | > 100 | 6.34 | > 100 | 7.28 | > 100 | 18.3 | > 100 | > 100 | > 100
6 | Cc1ccc(/C(=N/NS(=O)(=O)c2cc(C)c(Cl)cc2Cl)Sc2cc(Cl)c(C)cc2S(N)(=O)=O)cc1 | > 100 | > 100 | > 100 | > 100 | > 100 | > 100 | > 100 | > 100 | 41 | > 100 | 86.4 | > 100 | > 100 | > 100 | 83.5 | > 100 | > 100 | > 100 | > 100 | > 100
7 | O=c1[nH]c(-c2ccc(Cl)c(Cl)c2)cn1-c1ccc(Cl)cc1 | 16.4 | 37.1 | 16.3 | 31.9 | 71.3 | > 100 | 20.1 | 54.2 | 4.64 | 16.2 | 32.5 | > 100 | 26.7 | > 100 | 37.7 | > 100 | 33.1 | > 100 | 30.1 | 81.2
8 | OCC1OC(N2C=C(c3nc4ccccc4s3)C3C=CC=CC32)C(O)C(O)C1O (stereo not given) | 15.6 | > 50 | 20.8 | > 50 | 11 | 24.3 | 14.8 | 40.3 | 15.9 | > 50 | 14.7 | > 50 | 28.8 | > 50 | 16.5 | > 50 | 21 | > 50 | 22.1 | > 50
9 | CCCCCCCCCCCCCCCCn1cc[n+](C)c1 | 0.287 | 1.87 | 0.443 | 1.73 | 0.264 | 0.756 | 1.16 | 2.38 | 0.0742 | 0.787 | 0.613 | 2.01 | 0.667 | 1.89 | 0.444 | 1.61 | 0.468 | 1.78 | 0.705 | 2
10 | Cc1nnn(C)c1-c1cnc2c3ccc(C(C)(C)O)cc3n([C@H](c3ccccc3)C3CCOCC3)c2c1 | 0.158 | 34.1 | < 0.0227 | > 46.9 | 0.141 | > 91.4 | < 0.0182 | 51.1 | < 0.01 | > 100 | 0.0243 | 14.9 | 1.4 | > 74.9 | 3.61 | 24 | 7 | > 72.1 | 0.0395 | > 100
11 | CCCCCSc1ccc2nc(NC(=O)OCC)sc2c1 | 1.15 | > 100 | 0.491 | 31.1 | 0.409 | > 100 | 0.4 | 4.77 | 0.274 | > 100 | 0.908 | > 100 | 0.959 | > 100 | 0.487 | > 100 | 0.453 | > 100 | 0.778 | > 100
12 | COc1cccc(/C=N\NC(=O)c2ccncc2)c1O | 5.28 | > 100 | 5.36 | > 100 | 6.06 | > 100 | 6.07 | > 100 | 2.98 | > 100 | 2.96 | > 100 | 8.41 | > 100 | 4.48 | 68.3 | 7.48 | > 100 | 6.72 | > 100
